In ChEMBL document CHEMBL1201862, “PubChem BioAssay data set” (2004):
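Briefly, cells in 96-well plates were exposed to five compound concentrations for 48 h, and endpoints were estimated by linear interpolation. At the GI50, growth is halved.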 Activity calls are given as the source filed them. Rule as the data show it: active = GI50 up to about 1.1 µM and inactive = higher.

Key:
Assay in all cases: NCI anticancer screen, dose series, 48 h
RXF 393 = tested on: RXF 393
SNB-78 = tested on: SNB-78
M19-MEL = tested on: M19-MEL
A549 = tested on: A549
M14 = tested on: M14
HT-29 = tested on: HT-29
KM12 = tested on: KM12
XF498 = tested on: XF498
K562 = tested on: K562
LOX IMVI = tested on: LOX IMVI
786-0 = tested on: 786-0
DMS-273 = tested on: DMS-273
EKVX = tested on: EKVX
HOP-18 = tested on: HOP-18
SK-OV-3 = tested on: SK-OV-3
DLD-1 = tested on: DLD-1
SF-295 = tested on: SF-295
LXFL 529 = tested on: LXFL 529
CCRF-CEM = tested on: CCRF-CEM
SF-268 = tested on: SF-268
UO-31 = tested on: UO-31
NCI-H460 = tested on: NCI-H460
IGROV-1 = tested on: IGROV-1
TK-10 = tested on: TK-10
SNB-19 = tested on: SNB-19
UACC-62 = tested on: UACC-62
SF-539 = tested on: SF-539
A498 = tested on: A498
SN12C = tested on: SN12C
NCI-H23 = tested on: NCI-H23
Malme-3M = tested on: Malme-3M
HOP-62 = tested on: HOP-62
OVCAR-5 = tested on: OVCAR-5
HCT-15 = tested on: HCT-15
SNB-75 = tested on: SNB-75
COLO 205 = tested on: COLO 205
UACC-257 = tested on: UACC-257
HL-60 = tested on: HL-60
OVCAR-8 = tested on: OVCAR-8
CAKI-1 = tested on: CAKI-1
SW-620 = tested on: SW-620
SK-MEL-28 = tested on: SK-MEL-28
HCT-116 = tested on: HCT-116
OVCAR-3 = tested on: OVCAR-3
ACHN = tested on: ACHN
SR = tested on: SR
SK-MEL-5 = tested on: SK-MEL-5
OVCAR-4 = tested on: OVCAR-4
SK-MEL-2 = tested on: SK-MEL-2
U-251 = tested on: U-251
HOP-92 = tested on: HOP-92
MOLT-4 = tested on: MOLT-4
DMS-114 = tested on: DMS-114
RPMI-8226 = tested on: RPMI-8226
NCI-H522 = tested on: NCI-H522
NCI-H226 = tested on: NCI-H226
HCC 2998 = tested on: HCC 2998
KM-20L2 = tested on: KM-20L2

Measured: GI50

O=C1NC2=C(CCCCC/C2=N\O)C12CCCCCC2
inactive: RXF 393 > 100 µM | SNB-78 > 100 µM | M19-MEL > 100 µM | A549 > 100 µM | M14 > 100 µM | HT-29 > 100 µM | KM12 > 100 µM | XF498 > 100 µM | K562 > 100 µM | LOX IMVI > 100 µM | 786-0 > 100 µM | DMS-273 > 100 µM | EKVX > 100 µM | HOP-18 > 100 µM | SK-OV-3 > 100 µM | DLD-1 > 100 µM | SF-295 > 100 µM | LXFL 529 > 100 µM | CCRF-CEM > 100 µM | SF-268 > 100 µM | UO-31 > 100 µM | NCI-H460 > 100 µM | IGROV-1 > 100 µM | TK-10 > 100 µM | SNB-19 > 100 µM | UACC-62 > 100 µM | SF-539 > 100 µM | A498 > 100 µM | SN12C > 100 µM | NCI-H23 > 100 µM | Malme-3M > 100 µM | HOP-62 > 100 µM | OVCAR-5 > 100 µM | SNB-75 > 100 µM | COLO 205 > 100 µM | UACC-257 > 100 µM | HL-60 > 100 µM | OVCAR-8 > 100 µM | CAKI-1 > 100 µM | SW-620 > 100 µM | SK-MEL-28 > 100 µM | HCT-116 > 100 µM | OVCAR-3 > 100 µM | ACHN > 100 µM | SR > 100 µM | SK-MEL-5 > 100 µM | OVCAR-4 > 100 µM | SK-MEL-2 > 100 µM | U-251 > 100 µM | HOP-92 > 100 µM | MOLT-4 > 100 µM | DMS-114 > 100 µM | RPMI-8226 > 100 µM | NCI-H522 > 100 µM
> 100 µM: HCT-15

CCCCCCCCCCCC(=O)CC(=O)c1c(O)cccc1O
22.6 µM: HCT-15
inactive: RXF 393 17.7 µM | SNB-78 19.3 µM | M19-MEL 18.3 µM | NCI-H226 16.7 µM | A549 17.9 µM | M14 18 µM | HT-29 17.5 µM | KM12 17.5 µM | XF498 18.5 µM | K562 26.9 µM | LOX IMVI 17.4 µM | 786-0 23.3 µM | DMS-273 18.4 µM | EKVX 17.8 µM | HOP-18 16.4 µM | SK-OV-3 30.4 µM | DLD-1 17.7 µM | SF-295 19.4 µM | LXFL 529 18.2 µM | CCRF-CEM > 100 µM | SF-268 16.4 µM | UO-31 14.5 µM | NCI-H460 19 µM | HCC 2998 29 µM | IGROV-1 18.6 µM | TK-10 24.9 µM | SNB-19 20 µM | UACC-62 29.4 µM | SF-539 18.5 µM | SN12C 18.7 µM | NCI-H23 19.6 µM | Malme-3M 15.5 µM | HOP-62 23.7 µM | OVCAR-5 15.5 µM | KM-20L2 20.5 µM | SNB-75 19.4 µM | COLO 205 17.3 µM | UACC-257 17.5 µM | HL-60 34.9 µM | OVCAR-8 16.6 µM | CAKI-1 > 10 µM | SW-620 17.1 µM | SK-MEL-28 21.4 µM | HCT-116 16.6 µM | OVCAR-3 19.8 µM | ACHN 19.2 µM | SR 19.4 µM | SK-MEL-5 19.1 µM | OVCAR-4 17.3 µM | SK-MEL-2 14.1 µM | U-251 17.7 µM | HOP-92 20.4 µM | MOLT-4 19.7 µM | DMS-114 18.8 µM | RPMI-8226 19.6 µM | NCI-H522 22.2 µM

CC/N=C(/C#N)NCC
46.2 µM: HCT-15
inactive: SNB-78 > 100 µM | M19-MEL > 100 µM | NCI-H226 > 100 µM | A549 > 100 µM | M14 > 100 µM | HT-29 40.2 µM | KM12 > 100 µM | XF498 > 100 µM | K562 > 100 µM | LOX IMVI > 100 µM | 786-0 63 µM | DMS-273 44.5 µM | EKVX > 100 µM | HOP-18 > 100 µM | SK-OV-3 > 100 µM | DLD-1 > 100 µM | SF-295 > 100 µM | LXFL 529 > 100 µM | CCRF-CEM 75.2 µM | SF-268 > 100 µM | UO-31 > 100 µM | NCI-H460 > 100 µM | HCC 2998 > 100 µM | IGROV-1 > 100 µM | TK-10 > 100 µM | SNB-19 > 100 µM | UACC-62 > 100 µM | SF-539 > 100 µM | A498 > 100 µM | SN12C > 100 µM | NCI-H23 > 100 µM | Malme-3M > 100 µM | HOP-62 > 100 µM | OVCAR-5 > 100 µM | KM-20L2 > 100 µM | SNB-75 > 100 µM | COLO 205 99.3 µM | UACC-257 55.3 µM | HL-60 > 100 µM | OVCAR-8 > 100 µM | CAKI-1 > 100 µM | SW-620 18.7 µM | SK-MEL-28 > 100 µM | HCT-116 > 100 µM | OVCAR-3 > 100 µM | ACHN > 100 µM | SR > 100 µM | SK-MEL-5 > 100 µM | OVCAR-4 > 100 µM | SK-MEL-2 > 100 µM | U-251 96.4 µM | HOP-92 > 100 µM | MOLT-4 > 100 µM | DMS-114 37.6 µM | RPMI-8226 30.4 µM | NCI-H522 > 100 µM

CC(C)=CC(=O)CC(=O)C(=O)NCCNC(=O)C(=O)CC(=O)C=C(C)C
> 50 µM: HCT-15
inactive: RXF 393 > 50 µM | SNB-78 > 50 µM | M19-MEL > 50 µM | NCI-H226 > 50 µM | A549 > 50 µM | M14 > 50 µM | HT-29 > 50 µM | KM12 > 50 µM | XF498 > 50 µM | LOX IMVI > 50 µM | 786-0 > 50 µM | DMS-273 > 50 µM | EKVX > 50 µM | HOP-18 > 50 µM | SK-OV-3 > 50 µM | DLD-1 > 50 µM | SF-295 > 50 µM | LXFL 529 > 50 µM | SF-268 > 50 µM | UO-31 > 50 µM | NCI-H460 > 50 µM | HCC 2998 > 50 µM | IGROV-1 > 50 µM | TK-10 > 50 µM | SNB-19 > 50 µM | UACC-62 > 50 µM | SF-539 > 50 µM | A498 > 50 µM | SN12C > 50 µM | NCI-H23 > 50 µM | Malme-3M > 50 µM | HOP-62 > 50 µM | OVCAR-5 > 50 µM | KM-20L2 > 50 µM | SNB-75 > 50 µM | COLO 205 > 50 µM | UACC-257 > 50 µM | OVCAR-8 > 50 µM | CAKI-1 > 50 µM | SW-620 > 50 µM | SK-MEL-28 > 50 µM | HCT-116 > 50 µM | OVCAR-3 > 50 µM | ACHN > 50 µM | OVCAR-4 > 50 µM | SK-MEL-2 > 50 µM | U-251 > 50 µM | HOP-92 > 50 µM | DMS-114 > 50 µM | RPMI-8226 > 50 µM

O=C(NC(=S)Nc1ccccc1)c1ccc([N+](=O)[O-])cc1
inactive: SNB-78 > 100 µM | M19-MEL > 100 µM | A549 41.9 µM | M14 > 100 µM | HT-29 80.9 µM | KM12 3.46 µM | XF498 > 100 µM | K562 52 µM | LOX IMVI 84.1 µM | 786-0 > 100 µM | DMS-273 60.3 µM | EKVX > 100 µM | HOP-18 > 100 µM | SK-OV-3 50.1 µM | DLD-1 47.9 µM | SF-295 45.1 µM | LXFL 529 > 100 µM | CCRF-CEM 31.3 µM | SF-268 > 100 µM | UO-31 45.8 µM | NCI-H460 37.1 µM | HCC 2998 > 100 µM | IGROV-1 71.9 µM | TK-10 > 100 µM | UACC-62 75.7 µM | SN12C > 100 µM | NCI-H23 4.8 µM | Malme-3M > 100 µM | HOP-62 > 100 µM | OVCAR-5 2.28 µM | KM-20L2 > 100 µM | SNB-75 > 100 µM | COLO 205 47.3 µM | UACC-257 60.3 µM | HL-60 36.8 µM | OVCAR-8 > 100 µM | CAKI-1 73.8 µM | SW-620 > 100 µM | SK-MEL-28 > 100 µM | HCT-116 > 100 µM | OVCAR-3 92.5 µM | ACHN 83.9 µM | SK-MEL-5 36 µM | OVCAR-4 3.4 µM | HOP-92 35.9 µM | MOLT-4 71.8 µM | DMS-114 17.5 µM | RPMI-8226 28.6 µM | NCI-H522 18.3 µM
38.5 µM: HCT-15
